Assay results: US6613322B2, “Method for treating a subject suffering from conditions associated with an extracellular zinc sphingomyelinase” (The Trustees of Columbia University in the City of New York, priority 1997, dated 2003)

System: S-SMase of HUVECs
Assay: Immunoblot of S-SMase from conditioned medium of HUVECs
Format: cell-based, human
Settings: conditioned medium of IL-1β-treated HUVECs
Method: FIG. 26. Immunoblot analysis of L- and S-SMase from control and IL-1β-treated HUVECs. HUVECs were incubated for 18 h in DMEM, 0.2% BSA alone (Con) or containing human recombinant interleukin-1β (5 ng/ml) (IL1β). SMase was partially purified from the cell homogenates and conditioned media of these cells, and then aliquots derived from equivalent numbers of cells were subjected to immunoblot analysis. Specifically, conditioned medium from control and IL-1(-treated cells yielded 256.0 and 262.5 μg of concanavalin A eluate protein, of which 60.8 μg and 60.0 μg aliquots were loaded onto the SDS-PAGGE gel, respectively. Cell homogenates from control and IL-1β-treated cells yielded 168.1 and 160.6 μg of DEAE flow-through protein, of which 59.5 μg and 60.0 μg aliquots were loaded onto the SDS-PAGGE gel, respectively. No band at the molecular weight of L-SMase was visible in conditioned media (right-hand panels), even when overexposed.
Partial Purification of L- and S-SMase from HUVECs—A modification of previously published procedures (39) was used. Cells were scraped in ice-cold 40 mM Tris-HCl, 0.1 mM ZnCl2, 0.1% NP-40, pH 7.2 (Buffer A), disrupted by sonication on ice using three 5-second bursts (Branson 450 Sonifier) and centrifuged at 100,000×g for one hour. […]

increase of higher-Mr S-SMase by densitometry of immunoblot: approximately two-fold
Substance: IL-1β: human recombinant interleukin-1β
